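Protocol summary: plate cells (96-well), add compound at 5 concentrations, incubate 48 h, interpolate endpoints linearly. GI50: concentration for 50% inhibition of growth. TGI denotes the concentration required for complete inhibition of growth.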
Key:
Assay in all cases: inhibition of tumour cell growth, NCI panel, 48 h
OVCAR-4 ovarian = tested on: OVCAR-4 ovarian
SF-539 CNS = tested on: SF-539 CNS
HS 578T breast = tested on: HS 578T breast
SK-MEL-28 melanoma = tested on: SK-MEL-28 melanoma
NCI/ADR-RES ovarian = tested on: NCI/ADR-RES ovarian
CAKI-1 renal = tested on: CAKI-1 renal
UACC-62 melanoma = tested on: UACC-62 melanoma
SK-OV-3 ovarian = tested on: SK-OV-3 ovarian
SK-MEL-5 melanoma = tested on: SK-MEL-5 melanoma
NCI-H226 lung = tested on: NCI-H226 lung
U251 CNS = tested on: U251 CNS
UO-31 renal = tested on: UO-31 renal
IGROV1 ovarian = tested on: IGROV1 ovarian
CCRF-CEM leukemia = tested on: CCRF-CEM leukemia
COLO 205 colon = tested on: COLO 205 colon
DU-145 prostate = tested on: DU-145 prostate
SW-620 colon = tested on: SW-620 colon
HCC-2998 colon = tested on: HCC-2998 colon
HCT-116 colon = tested on: HCT-116 colon
NCI-H522 lung = tested on: NCI-H522 lung
MALME-3M melanoma = tested on: MALME-3M melanoma
TK-10 renal = tested on: TK-10 renal
OVCAR-8 ovarian = tested on: OVCAR-8 ovarian
MDA-MB-435 = tested on: MDA-MB-435
PC-3 prostate = tested on: PC-3 prostate
M14 melanoma = tested on: M14 melanoma
KM12 colon = tested on: KM12 colon
OVCAR-3 ovarian = tested on: OVCAR-3 ovarian
T-47D breast = tested on: T-47D breast

Molecule `CN[C@H](C#Cc1c(F)ccc2c1/C(=C/c1[nH]ccc1OC)C(=O)N2)CO` has a GI50 (OVCAR-4 ovarian) of 0.631 µM, a TGI (OVCAR-4 ovarian) of 4.22 µM and a GI50 (SF-539 CNS) of 0.431 µM. The TGI (SF-539 CNS) was 1.53 µM, the GI50 (HS 578T breast) was 0.212 µM and the TGI (HS 578T breast) was 12.9 µM. The GI50 (SK-MEL-28 melanoma) was 0.646 µM, the TGI (SK-MEL-28 melanoma) was 4.31 µM and the GI50 (NCI/ADR-RES ovarian) was 0.973 µM. It also gave a TGI (NCI/ADR-RES ovarian) of 6.58 µM, a GI50 (CAKI-1 renal) of 0.0314 µM and a TGI (CAKI-1 renal) of 0.736 µM. It also gave a GI50 (UACC-62 melanoma) of 0.671 µM, a TGI (UACC-62 melanoma) of 4.6 µM and a GI50 (SK-OV-3 ovarian) of 0.117 µM. It also gave a TGI (SK-OV-3 ovarian) of 8.12 µM, a GI50 (SK-MEL-5 melanoma) of 0.511 µM and a TGI (SK-MEL-5 melanoma) of 1.92 µM. For the same molecule, the GI50 (NCI-H226 lung) was 0.41 µM, the TGI (NCI-H226 lung) was 1.72 µM and the GI50 (U251 CNS) was 0.323 µM. For the same molecule, the TGI (U251 CNS) was 2.94 µM, the GI50 (UO-31 renal) was 0.335 µM and the TGI (UO-31 renal) was 2.54 µM. It also gave a GI50 (IGROV1 ovarian) of 0.682 µM, a TGI (IGROV1 ovarian) of 3.32 µM and a GI50 (CCRF-CEM leukemia) of 0.349 µM. The TGI (CCRF-CEM leukemia) was 1.83 µM, the GI50 (COLO 205 colon) was 0.897 µM and the TGI (COLO 205 colon) was 3.39 µM. The GI50 (DU-145 prostate) was 0.411 µM, the TGI (DU-145 prostate) was 3 µM and the GI50 (SW-620 colon) was 0.476 µM. For the same molecule, the TGI (SW-620 colon) was 2.71 µM, the GI50 (HCC-2998 colon) was 0.746 µM and the TGI (HCC-2998 colon) was 3.27 µM. The GI50 (HCT-116 colon) was 0.136 µM, the TGI (HCT-116 colon) was 5.21 µM and the GI50 (NCI-H522 lung) was 0.659 µM. It also gave a TGI (NCI-H522 lung) of 2.45 µM, a GI50 (MALME-3M melanoma) of 1.46 µM and a TGI (MALME-3M melanoma) of 5.06 µM. For the same molecule, the GI50 (TK-10 renal) was 0.247 µM, the TGI (TK-10 renal) was 2.25 µM and the GI50 (OVCAR-8 ovarian) was 0.551 µM. The TGI (OVCAR-8 ovarian) was 4.25 µM, the GI50 (MDA-MB-435) was 0.354 µM and the TGI (MDA-MB-435) was 2.82 µM. For the same molecule, the GI50 (PC-3 prostate) was 1.03 µM, the TGI (PC-3 prostate) was 10.8 µM and the GI50 (M14 melanoma) was 0.403 µM. For the same molecule, the TGI (M14 melanoma) was 3.14 µM, the GI50 (KM12 colon) was 0.036 µM and the TGI (KM12 colon) was 1.76 µM. The GI50 (OVCAR-3 ovarian) was 0.869 µM, the TGI (OVCAR-3 ovarian) was 3.1 µM and the GI50 (T-47D breast) was 2.27 µM.

— PubChem BioAssay (NCI)
